# From US4490365A, “Defleecing compounds” (Commonwealth Scientifique & Industrial Research Organization, priority 1980, dated 1984)
# Experiments:
# Adult Merino wethers [1] = assay: Subcutaneous infusion in sheep: staple plucking force and defleecing result; assay type: in vivo; conditions: for Plucking Force day 7: day 7 (in day 9 column)
# Source text: One way of defining the extent of wool fibre weakening is by reference to the plucking force (Newtons/ktex, or N/ktex) required to remove the fleece. Methods for making this measurement are described by A. J. Gordon, Aust. J. of Exp. Agric. Anim. Husb. 20, 40-49, and Moore et al, Search. 12, 128-129.
# Adult Merino wethers were housed under cover in individual pens or metabolic cages. The animals were offered a maintenance ration of 600 g of a pelleted mixture of 60% lucerne and 40% oats as one meal daily. Drinking water was provided ad lib.
# (§1) Wethers were prepared for infusion experiments by the insertion of a polythene catheter below the skin so that the orifice lay near the centre of a 10×10 cm tattooed side on the right midside region of the body. The defleecing agent was dissolved in sterile saline solution and infused using a Harvard pump delivering a volume of 0.030 ml/min. Control animals were infused with saline solution alone.
# new born mice = conditions: injected into new born mice; cited from earlier work
# Adult Merino wethers [2] = assay: Wool harvested from tattooed midside area after subcutaneous infusion (wool growth); assay type: in vivo, sheep
# Experimental: as §1
# Recovery to preinfusion growth levels was observed 2 weeks later. At lower dose levels wool growth inhibition was noticeably less, the maximum recorded effect being about 80% inhibition of wool growth. This occurred about 4 weeks after infusion, but normal wool growth was attained about 2 weeks later.
# [3] = Radioimmunoassay of plasma EGF correlated with plucking force; assay type: in vivo, sheep
# Experimental: During the course of the above trails blood samples were taken from selected animals at approximately 1/2 hour intervals after the start of treatment. A correlation between radioimmunoassay determinations of plasma concentrations EGF and forces subsequently required to pluck wool from the skin of the sheep, pointed to the desirability of establishing a plasma concentration EGF of at least about 10 ng/ml for a period of at least about 15 hrs. in order to modify wool growth sufficiently for the fleece to be easily removed by hand.
# [4] = sheep 26, 42.0 kg, EGF 1-45 dose total 4.9, 0.30 mg/kg^0.75, s.c. infusion 26.5 hr
# [5] = sheep 27, EGF 1-45 dose total 1.0, s.c. infusion 28 hr
# [6] = sheep 1, 36.3 kg, EGF dose total 27.5, 1.86 mg/kg^0.75, s.c. infusion 66 hr
# [7] = sheep 3, 41.0 kg, EGF dose total 11.7, 0.74 mg/kg^0.75, s.c. infusion 28 hr
# [8] = sheep 4, EGF dose total 11.7, s.c. infusion 28 hr
# [9] = sheep 5, EGF dose total 10.0, s.c. infusion 28 hr
# [10] = sheep 7, 49.0 kg, EGF dose total 5.8, 0.32 mg/kg^0.75, s.c. infusion 28 hr
# [11] = sheep 8, 47.6 kg, EGF dose total 4.7, 0.26 mg/kg^0.75, s.c. infusion 28 hr
# [12] = sheep 9, 47.4 kg, EGF dose total 4.7, 0.26 mg/kg^0.75, s.c. infusion 28 hr
# [13] = sheep 10, 42.0 kg, EGF dose total 4.7, 0.28 mg/kg^0.75, s.c. infusion 26.5 hr
# [14] = sheep 12, 45.4 kg, EGF dose total 2.9, 0.17 mg/kg^0.75, s.c. infusion 28 hr
# [15] = sheep 13, 30.6 kg, EGF dose total 2.4, 0.19 mg/kg^0.75, s.c. infusion 25 hr
# [16] = sheep 14, 29.4 kg, EGF dose total 2.0, 0.16 mg/kg^0.75, s.c. infusion 26.5 hr
# [17] = sheep 16, EGF dose total 1.0, s.c. infusion 28 hr
# [18] = sheep 17, 40.8 kg, EGF dose total 1.0, 0.06 mg/kg^0.75, s.c. infusion 28 hr
# [19] = sheep 19, 31.8 kg, EGF dose total 5.0, 0.37 mg/kg^0.75, s.c. infusion 7 hr
# [20] = sheep 20, 41.0 kg, EGF dose total 5.0, 0.31 mg/kg^0.75, s.c. infusion 7 hr
# [21] = sheep 21, 41.9 kg, EGF dose total 5.0, 0.30 mg/kg^0.75, s.c. infusion 7 hr
# [22] = sheep 22, 45.0 kg, EGF dose total 5.0, 0.29 mg/kg^0.75, s.c. infusion 7 hr
# [23] = sheep 23, 50.6 kg, EGF dose total 5.0, 0.26 mg/kg^0.75, s.c. infusion 7 hr
# [24] = sheep 24, 28.6 kg, EGF dose total 2.4, 0.20 mg/kg^0.75, s.c. infusion 48 hr
# [25] = sheep 25, 28.4 kg, EGF dose total 2.4, 0.19 mg/kg^0.75, s.c. infusion 48 hr
substance,measurement,setting,value
"EGF 1-45: derivative prepared by tryptic digestion of the intact EGF peptide (NSYPGCPSSYDGYCLNGGVCMHIESLDSYTCNCVIGYSGDRCQTR; not fully specified; Epidermal growth factor; UniProt P01132 977-1021, looked up, fragment)",Infusion results compared with EGF,Adult Merino wethers [1]; s.c. infusion,closely similar results
same,Plucking Force day 1,Adult Merino wethers [1]; [4],5.6 N/ktex
same,Plucking Force day 9,Adult Merino wethers [1]; [4],0.3 N/ktex
same,Result,Adult Merino wethers [1]; [4],Fleece cast
same,Plucking Force day 1,Adult Merino wethers [1]; [5],4.1 N/ktex
same,Plucking Force day 9,Adult Merino wethers [1]; [5],3.1 N/ktex
same,Result,Adult Merino wethers [1]; [5],Weakened fibre
EGF: polypeptide of 53 amino acids prepared from the submaxillary glands of adult male mice,Effect on body growth rate and hair growth,new born mice,can inhibit body growth rate and hair growth
same,Fleece removal,Adult Merino wethers [1]; s.c. infusion at rates as low as 0.16 mg EGF/kg^0.75,consistently allowed fleece to be easily removed
same,Time to casting of the whole fleece,Adult Merino wethers [1]; s.c. infusion of amounts greater than about 0.25 mg EGF/kg^0.75,≤ 7 days
same,Fleece result,Adult Merino wethers [1]; s.c. infusions less than 0.25 mg EGF/kg^0.75,fleeces were retained but staples could easily be removed by hand
same,Plucking Force day 1,Adult Merino wethers [1]; [6],12.2 N/ktex
same,Plucking Force day 9,Adult Merino wethers [1]; [6],0.1 N/ktex
same,Result,Adult Merino wethers [1]; [6],Fleece cast
same,Plucking Force day 1,Adult Merino wethers [1]; [7],8.9 N/ktex
same,Plucking Force day 9,Adult Merino wethers [1]; [7],0 N/ktex
same,Result,Adult Merino wethers [1]; [7],Fleece cast
same,Plucking Force day 1,Adult Merino wethers [1]; [8],3.4 N/ktex
same,Result,Adult Merino wethers [1]; [8],Fleece cast
same,Plucking Force day 7,Adult Merino wethers [1]; [8],0.3 N/ktex
same,Plucking Force day 1,Adult Merino wethers [1]; [9],4.1 N/ktex
same,Result,Adult Merino wethers [1]; [9],Fleece cast
same,Plucking Force day 7,Adult Merino wethers [1]; [9],0.2 N/ktex
same,Plucking Force day 1,Adult Merino wethers [1]; [10],7.5 N/ktex
same,Plucking Force day 9,Adult Merino wethers [1]; [10],0.4 N/ktex
same,Result,Adult Merino wethers [1]; [10],Fleece cast
same,Plucking Force day 1,Adult Merino wethers [1]; [11],21.3 N/ktex
same,Plucking Force day 9,Adult Merino wethers [1]; [11],2.1 N/ktex
same,Result,Adult Merino wethers [1]; [11],Fleece cast
same,Plucking Force day 1,Adult Merino wethers [1]; [12],12.5 N/ktex
same,Plucking Force day 9,Adult Merino wethers [1]; [12],1.4 N/ktex
same,Result,Adult Merino wethers [1]; [12],Fleece cast
same,Plucking Force day 1,Adult Merino wethers [1]; [13],7.6 N/ktex
same,Plucking Force day 9,Adult Merino wethers [1]; [13],0.1 N/ktex
same,Result,Adult Merino wethers [1]; [13],Fleece cast
same,Plucking Force day 1,Adult Merino wethers [1]; [14],6.6 N/ktex
same,Plucking Force day 9,Adult Merino wethers [1]; [14],0.6 N/ktex
same,Result,Adult Merino wethers [1]; [14],Weakened fibre
same,Plucking Force day 1,Adult Merino wethers [1]; [15],11.3 N/ktex
same,Plucking Force day 9,Adult Merino wethers [1]; [15],2.1 N/ktex
same,Result,Adult Merino wethers [1]; [15],Weakened fibre
same,Plucking Force day 1,Adult Merino wethers [1]; [16],9.3 N/ktex
same,Plucking Force day 9,Adult Merino wethers [1]; [16],1.5 N/ktex
same,Result,Adult Merino wethers [1]; [16],Weakened fibre
same,Plucking Force day 1,Adult Merino wethers [1]; [17],5.5 N/ktex
same,Plucking Force day 9,Adult Merino wethers [1]; [17],3.6 N/ktex
same,Result,Adult Merino wethers [1]; [17],Weakened fibre
same,Plucking Force day 1,Adult Merino wethers [1]; [18],10.6 N/ktex
same,Plucking Force day 9,Adult Merino wethers [1]; [18],8.7 N/ktex
same,Result,Adult Merino wethers [1]; [18],No effect
same,Plucking Force day 1,Adult Merino wethers [1]; [19],7.0 N/ktex
same,Plucking Force day 9,Adult Merino wethers [1]; [19],0.4 N/ktex
same,Result,Adult Merino wethers [1]; [19],Fleece cast
same,Plucking Force day 1,Adult Merino wethers [1]; [20],17.9 N/ktex
same,Plucking Force day 9,Adult Merino wethers [1]; [20],1.0 N/ktex
same,Result,Adult Merino wethers [1]; [20],Fleece cast
same,Plucking Force day 1,Adult Merino wethers [1]; [21],11.4 N/ktex
same,Plucking Force day 9,Adult Merino wethers [1]; [21],0.8 N/ktex
same,Result,Adult Merino wethers [1]; [21],Fleece cast
same,Plucking Force day 1,Adult Merino wethers [1]; [22],9.0 N/ktex
same,Plucking Force day 9,Adult Merino wethers [1]; [22],1.0 N/ktex
same,Result,Adult Merino wethers [1]; [22],Fleece cast
same,Plucking Force day 1,Adult Merino wethers [1]; [23],12.7 N/ktex
same,Plucking Force day 9,Adult Merino wethers [1]; [23],2.8 N/ktex
same,Result,Adult Merino wethers [1]; [23],Fleece cast
same,Plucking Force day 1,Adult Merino wethers [1]; [24],14.8 N/ktex
same,Plucking Force day 9,Adult Merino wethers [1]; [24],3.2 N/ktex
same,Result,Adult Merino wethers [1]; [24],Weakened fibre
same,Plucking Force day 1,Adult Merino wethers [1]; [25],11.7 N/ktex
same,Plucking Force day 9,Adult Merino wethers [1]; [25],2.4 N/ktex
same,Result,Adult Merino wethers [1]; [25],Weakened fibre
same,Wool production,"Adult Merino wethers [2]; 0.74 and 1.86 mg EGF/kg^0.75, 2 weeks after the start of infusion",declined to near zero
same,Time to recovery to preinfusion growth levels,"Adult Merino wethers [2]; 0.74 and 1.86 mg EGF/kg^0.75, counted after the near-zero point (2 weeks after start)",2 weeks
same,Time of maximum wool growth inhibition after infusion,Adult Merino wethers [2]; lower dose levels,about 4 weeks
same,Time to normal wool growth after maximum inhibition,Adult Merino wethers [2]; lower dose levels,about 2 weeks
same,Maximum inhibition of wool growth,Adult Merino wethers [2]; lower dose levels (below 0.74 mg EGF/kg^0.75),about 80%
same,Period of plasma concentration needed for fleece to be easily removed by hand,[3]; at plasma EGF of at least about 10 ng/ml,at least 15 hrs
same,Plasma concentration EGF needed for fleece to be easily removed by hand,"[3]; radioimmunoassay, correlated with plucking force",at least 10 ng/ml
